Test system: A498 complex spheroids with HUVEC/MSC, growth
Experiment: Anticancer human tumor A498 cell line growth inhibition [AhR];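 also: seven day exposure starting three days after spheroid seeding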;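 as to viability, T/C: luminescence signal used as a surrogate for viable cells; luminescence viability scaled so 100% equals DMSO vehicle wells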
Conditions: for IC50: curve of first compound; for viability, T/C: stronger effect = lower value
From the text: Multicellular complex tumor spheroid response to aryl hydrocarbon receptor antagonists in combination with a variety of drugs and investigational agents in selected tumor cell lines
The current study was undertaken to assess response to aryl hydrocarbon receptor antagonists in combination with standard-of-care drugs and investigational agents in solid tumor complex spheroid models. Complex spheroids include a stromal component modeled by human endothelial cells (HUVEC) and fibroblasts modeled by human mesenchymal stem cells (MSCs). The concentration ranges selected for each drug and investigational agent were based upon clinically achievable concentrations if the clinical Cmax of the agent was known.
Compounds. The drugs and investigational agents: BAY 2416964 (NSC825713), GNF351 (NSC835774), CH-223191 (NSC835775), CPI-455 (NSC825282), aza-TdCyd (NSC777586), decitabine (NSC127716), belinostat (NSC758774), entinostat (NSC756642), pevonedistat (NSC761192), tazemetostat (NSC777109), talazoparib (NSC765396), olaparib (NSC753686), selinexor (NSC780203), nedisertib (M3814, NSC802822), bortezomib (NSC756655), venetoclax (NSC766270), doxorubicin (NSC123127), elimusertib (BAY189344, NSC800525), ceralasertib (AZD6738, NSC777638), TAK-243 (NSC785004), alisertib (NSC759677), etoposide (NSC141540), topotecan (NSC609699), eribulin (NSC707389), gemcitabine (NSC613327), carboplatin (NSC241240), cisplatin (NSC119875), and SN-38 (NSC673596) were obtained from the National Cancer Institute (NCI) Developmental Therapeutics Program Chemical Repository (32). The FDA-approved anticancer drug set is available from the Developmental Therapeutics Program at https://dtp.cancer.gov/organization/dscb/obtaining/available plates.htm. […] The stock solutions were prepared in dimethyl sulfoxide (DMSO, Sigma-Aldrich, St. Louis, MO, cat. D2650), except for the platinum compounds which were prepared in saline (Quality Biological, Gaithersburg, MD, cat. 114-055-101), at 800-fold the tested concentration and stored at -70 degrees C prior to their use. All drugs and investigational agents were tested over a range starting from a high concentration at or near the clinical Cmax and decreasing in half-log increments. If the clinical Cmax for an agent had not been determined, the highest concentration tested was 10 microM (Table 1).
Cell Culture. All cells were maintained in an incubator at 37 degrees C and 5% CO2 with 95% humidity. The PDC lines were cultured according to standard operating procedures established by the NCI PDMR (https://pdmr.cancer.gov). Briefly, all PDCs were thawed and cultured in Matrigel-coated flasks prepared with a working solution of 1X Ham's F-12 nutrient mix, without supplementation (Invitrogen, Waltham, MA, cat. 11765054), 100 U/mL penicillin-streptomycin (Invitrogen, cat. 15140122), and 2.5% Matrigel (Corning Inc., Corning, NY, cat. 354248) for the first three passages. All PDCs were cultured in complete DMEM/F-12 media containing advanced DMEM/F-12 (Invitrogen, cat. 12634028), 4.9% defined fetal bovine serum, heat inactivated (HyClone Laboratories Inc., Logan, UT, cat. SH30070.03HI), 389 ng/mL hydrocortisone (Sigma-Aldrich, cat. H4001), 9.7 ng/mL human EGF recombinant protein (Invitrogen, cat. PHG0313), 23.4 microg/mL adenine (Sigma-Aldrich, cat. A2786), 97.3 U/mL penicillin-streptomycin (Invitrogen, cat. 15140122), 1.9 mM L-glutamine (Invitrogen, cat. 25030081), and 9.7 microM Y-27632 dihydrochloride (Tocris Bioscience, Bristol, United Kingdom, cat. 1254). The PDCs were cultured in complete DMEM/F12 media without 10 microM Y-27632 dihydrochloride for at least two passages prior to the screen. The established cell lines NCI-H1341 and […] were cultured in DMEM/F-12, HEPES (Invitrogen, cat. 11330032), 5% defined fetal bovine serum (HyClone Laboratories Inc., cat. SH30070.03), ITS premix universal culture supplement [insulin (5 microg/mL), transferrin (5 microg/mL), and selenious acid (5 ng/mL)] […]

[1] = second compound 0.1 µM, first compound 0.0316 µM
[2] = second compound 0.1 µM, first compound 0.1 µM
[3] = second compound 0.1 µM, first compound 0.316 µM
[4] = second compound 0.1 µM, first compound 1 µM
[5] = second compound 0.1 µM, first compound 3.16 µM
[6] = second compound 0.1 µM, first compound 10 µM
[7] = second compound 0.316 µM, first compound 0.0316 µM
[8] = second compound 0.316 µM, first compound 0.1 µM
[9] = second compound 0.316 µM, first compound 0.316 µM
[10] = second compound 0.316 µM, first compound 1 µM
[11] = second compound 0.316 µM, first compound 3.16 µM
[12] = second compound 0.316 µM, first compound 10 µM
[13] = second compound 1 µM, first compound 0.0316 µM
[14] = second compound 1 µM, first compound 0.1 µM
[15] = second compound 1 µM, first compound 0.316 µM
[16] = second compound 1 µM, first compound 1 µM
[17] = second compound 1 µM, first compound 3.16 µM
[18] = second compound 1 µM, first compound 10 µM
[19] = second compound 3.16 µM, first compound 0.0316 µM
[20] = second compound 3.16 µM, first compound 0.1 µM
[21] = second compound 3.16 µM, first compound 0.316 µM
[22] = second compound 3.16 µM, first compound 1 µM
[23] = second compound 3.16 µM, first compound 3.16 µM
[24] = second compound 3.16 µM, first compound 10 µM
[25] = second compound 10 µM, first compound 0.0316 µM
[26] = second compound 10 µM, first compound 0.1 µM
[27] = second compound 10 µM, first compound 0.316 µM
[28] = second compound 10 µM, first compound 1 µM
[29] = second compound 10 µM, first compound 3.16 µM
[30] = second compound 10 µM, first compound 10 µM

Molecule `CC(C)CC(NC(=O)C(Cc1ccccc1)NC(=O)c1cnccn1)B(O)O` (stereo not given) + CC(CO)NC(=O)c1cc(-c2ccc(Cl)cc2)nn(-c2cnn(C)c2)c1=O has an IC50 (second compound 0.1 µM) of 2.95 nM, an IC50 (second compound 0.316 µM) of 3.2 nM and an IC50 (second compound 1 µM) of 2.67 nM. For the same molecule, the IC50 (second compound 3.16 µM) was 2.13 nM, the IC50 (second compound 10 µM) was 1.57 nM and the viability, T/C (second compound 0.1 µM, first compound 0.000949 µM) was 91.1%. The viability, T/C (second compound 0.1 µM, first compound 0.003 µM) was 49.4%, the viability, T/C (second compound 0.1 µM, first compound 0.00949 µM) was 3.71% and the viability, T/C (second compound 0.1 µM, first compound 0.03 µM) was 0.58%. The viability, T/C (second compound 0.1 µM, first compound 0.0949 µM) was 2.33%, the viability, T/C (second compound 0.1 µM, first compound 0.3 µM) was 1.23% and the viability, T/C (second compound 0.316 µM, first compound 0.000949 µM) was 90%. For the same molecule, the viability, T/C (second compound 0.316 µM, first compound 0.003 µM) was 52.6%, the viability, T/C (second compound 0.316 µM, first compound 0.00949 µM) was 4.62% and the viability, T/C (second compound 0.316 µM, first compound 0.03 µM) was 1.25%. The viability, T/C (second compound 0.316 µM, first compound 0.0949 µM) was 0.46%, the viability, T/C (second compound 0.316 µM, first compound 0.3 µM) was 1.14% and the viability, T/C (second compound 1 µM, first compound 0.000949 µM) was 87.2%. The viability, T/C (second compound 1 µM, first compound 0.003 µM) was 45.8%, the viability, T/C (second compound 1 µM, first compound 0.00949 µM) was 4.69% and the viability, T/C (second compound 1 µM, first compound 0.03 µM) was 1.75%. The viability, T/C (second compound 1 µM, first compound 0.0949 µM) was 1.82%, the viability, T/C (second compound 1 µM, first compound 0.3 µM) was 2.86% and the viability, T/C (second compound 3.16 µM, first compound 0.000949 µM) was 79.4%. For the same molecule, the viability, T/C (second compound 3.16 µM, first compound 0.003 µM) was 37.6%, the viability, T/C (second compound 3.16 µM, first compound 0.00949 µM) was 5.03% and the viability, T/C (second compound 3.16 µM, first compound 0.03 µM) was 1.11%. It also gave a viability, T/C (second compound 3.16 µM, first compound 0.0949 µM) of 3.08%, a viability, T/C (second compound 3.16 µM, first compound 0.3 µM) of 0.24% and a viability, T/C (second compound 10 µM, first compound 0.000949 µM) of 65.7%. For the same molecule, the viability, T/C (second compound 10 µM, first compound 0.003 µM) was 29.6%, the viability, T/C (second compound 10 µM, first compound 0.00949 µM) was 4.31% and the viability, T/C (second compound 10 µM, first compound 0.03 µM) was 0.81%. It also gave a viability, T/C (second compound 10 µM, first compound 0.0949 µM) of 2.81% and a viability, T/C (second compound 10 µM, first compound 0.3 µM) of 0.32%.

`Nc1ccccc1NC(=O)c1ccc(CNC(=O)OCc2cccnc2)cc1` + CC(CO)NC(=O)c1cc(-c2ccc(Cl)cc2)nn(-c2cnn(C)c2)c1=O was tested, and the IC50 (second compound 0.1 µM) was 963 nM, the IC50 (second compound 0.316 µM) was 799 nM and the IC50 (second compound 1 µM) was 766 nM. It also gave an IC50 (second compound 3.16 µM) of 703 nM, an IC50 (second compound 10 µM) of 322 nM and a viability, T/C [1] of 89.4%. The viability, T/C [2] was 88.8%, the viability, T/C [3] was 77.7% and the viability, T/C [4] was 44.6%. For the same molecule, the viability, T/C [5] was 24.5%, the viability, T/C [6] was 1.98% and the viability, T/C [7] was 79.5%. For the same molecule, the viability, T/C [8] was 85.8%, the viability, T/C [9] was 74% and the viability, T/C [10] was 39.5%. It also gave a viability, T/C [11] of 23.2%, a viability, T/C [12] of 2.07% and a viability, T/C [13] of 75%. The viability, T/C [14] was 75%, the viability, T/C [15] was 78.5% and the viability, T/C [16] was 39.2%. The viability, T/C [17] was 23%, the viability, T/C [18] was 4.91% and the viability, T/C [19] was 64.5%. For the same molecule, the viability, T/C [20] was 73.8%, the viability, T/C [21] was 71.4% and the viability, T/C [22] was 38.1%. For the same molecule, the viability, T/C [23] was 20.2%, the viability, T/C [24] was 1.92% and the viability, T/C [25] was 58.2%. It also gave a viability, T/C [26] of 53.1%, a viability, T/C [27] of 55.1% and a viability, T/C [28] of 28.7%. For the same molecule, the viability, T/C [29] was 14.5% and the viability, T/C [30] was 0.8%.

`O=C(c1cc(Cc2n[nH]c(=O)c3ccccc23)ccc1F)N1CCN(C(=O)C2CC2)CC1` + CC(CO)NC(=O)c1cc(-c2ccc(Cl)cc2)nn(-c2cnn(C)c2)c1=O showed an IC50 (second compound 0.1 µM) of over 10000 nM, an IC50 (second compound 0.316 µM) of over 10000 nM and an IC50 (second compound 1 µM) of over 10000 nM. For the same molecule, the IC50 (second compound 3.16 µM) was over 10000 nM, the IC50 (second compound 10 µM) was over 10000 nM and the viability, T/C [1] was 105%. For the same molecule, the viability, T/C [2] was 93.3%, the viability, T/C [3] was 102% and the viability, T/C [4] was 84.6%. For the same molecule, the viability, T/C [5] was 94.6%, the viability, T/C [6] was 85.3% and the viability, T/C [7] was 97%. For the same molecule, the viability, T/C [8] was 106%, the viability, T/C [9] was 99.9% and the viability, T/C [10] was 81.2%. The viability, T/C [11] was 87.4%, the viability, T/C [12] was 81.7% and the viability, T/C [13] was 99%. The viability, T/C [14] was 96.6%, the viability, T/C [15] was 94.6% and the viability, T/C [16] was 77.9%. It also gave a viability, T/C [17] of 87.2%, a viability, T/C [18] of 79.9% and a viability, T/C [19] of 91.3%. For the same molecule, the viability, T/C [20] was 81.7%, the viability, T/C [21] was 83.5% and the viability, T/C [22] was 77.2%. For the same molecule, the viability, T/C [23] was 79%, the viability, T/C [24] was 70.3% and the viability, T/C [25] was 71.7%. For the same molecule, the viability, T/C [26] was 67.6%, the viability, T/C [27] was 69.1% and the viability, T/C [28] was 61.6%. The viability, T/C [29] was 64.1% and the viability, T/C [30] was 62%.

Source: PubChem BioAssay AID1919007 (Molecular Pharmacology Branch, DTP, NCI, 2023)
